pIC50: −log10 of the molar value.
How the values were obtained:
[1] = biological target: T1, Alpha-1A adrenergic receptor (Homo sapiens, UniProt P35348)
T1 sequence (P35348 whole entry): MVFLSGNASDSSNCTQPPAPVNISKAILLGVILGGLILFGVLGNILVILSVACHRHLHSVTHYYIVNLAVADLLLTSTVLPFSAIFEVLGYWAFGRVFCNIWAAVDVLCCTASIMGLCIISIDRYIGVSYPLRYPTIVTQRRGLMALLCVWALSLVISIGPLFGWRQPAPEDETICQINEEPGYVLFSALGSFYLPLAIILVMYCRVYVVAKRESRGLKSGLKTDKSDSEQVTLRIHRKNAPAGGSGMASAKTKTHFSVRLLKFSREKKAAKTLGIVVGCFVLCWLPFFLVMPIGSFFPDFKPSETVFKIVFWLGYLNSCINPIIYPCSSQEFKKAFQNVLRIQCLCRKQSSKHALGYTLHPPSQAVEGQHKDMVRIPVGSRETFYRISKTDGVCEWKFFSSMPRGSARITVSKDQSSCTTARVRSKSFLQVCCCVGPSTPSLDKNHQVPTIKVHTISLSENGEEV
Description: Antagonist activity at human full-length N-terminal SNAP-tagged alpha1A adrenoceptor expressed in HEK293 cells assessed as inhibition of agonist-induced calcium mobilization preincubated for 10 mins followed by agonist addition by fluo-4 AM dye-based assay

[2] = biological target: T2, Alpha-1A adrenergic receptor (Homo sapiens) (UniProt P35348); assay: Antagonist activity at human full-length N-terminal SNAP-tagged alpha1A adrenoceptor expressed in HEK293 cells assessed as inhibition of agonist-induced calcium mobilization at 10 uM preincubated for 10 mins followed by agonist addition by fluo-4 AM dye-based assay relative to control; format: functional, cell-based
T2 sequence (whole entry): T1 sequence (P35348 whole entry)

Compound	pIC50 [1]	inhibition [2] [%]
COc1ccc2c(c1)CCN1Cc3[nH]c4ccccc4c3CC21 (stereo not given)	6.26	100
CCC1c2[nH]c3ccccc3c2CC2c3cc4c(cc3CCN21)OCO4 (stereo not given)	< 5.00	82
COc1cc2c(cc1OC)C1Cc3c([nH]c4ccccc34)C(CC(C)C)N1CC2 (stereo not given)	–	72
COc1ccc2c(c1OC)CN1CCc3cc4c(cc3[C@@H]1C2)OCO4 [CANADINE]	5.27	–
COc1ccc(C2c3[nH]c4ccccc4c3CC3c4cc(OC)c(OC)cc4CCN32)cc1 (stereo not given)	–	21
CCCCOc1cc2c(cc1OC)C1Cc3c([nH]c4ccc(OC)cc34)CN1CC2 (stereo not given)	–	63
COc1ccc2[nH]c3c(c2c1)C[C@@H]1c2cc4c(cc2CCN1C3)OCO4	5.50	100
CCCCOc1cc2c(cc1OC)CCN1Cc3[nH]c4ccc(OC)cc4c3CC21 (stereo not given)	5.64	98
COc1ccc2[nH]c3c(c2c1)CC1c2cc(OC)c(O)cc2CCN1C3 (stereo not given)	–	0
CCOc1cc2c(cc1OC)C1Cc3c([nH]c4ccc(OC)cc34)CN1CC2 (stereo not given)	–	17
COc1cc2cc[n+]3c(c2cc1OC)Cc1ccc(OC)c(OC)c1C3	5.12	–
COc1cc2c(cc1OC)C1Cc3c([nH]c4ccccc34)C(c3ccccc3)N1CC2 (stereo not given)	–	0
CCCOc1cc2c(cc1OC)C1Cc3c([nH]c4ccc(OC)cc34)CN1CC2 (stereo not given)	–	21
CC(C)CC1c2[nH]c3ccccc3c2CC2c3cc4c(cc3CCN21)OCO4 (stereo not given)	–	0
COc1ccc2c(c1)CCN1C(C)c3[nH]c4ccccc4c3CC21 (stereo not given)	5.06	90
COc1ccc(C2c3[nH]c4ccccc4c3CC3c4cc5c(cc4CCN32)OCO5)cc1 (stereo not given)	–	0
Fc1ccc2c3c([nH]c2c1)CN1CCc2cc4c(cc2C1C3)OCO4 (stereo not given)	5.69	100
c1c2c(cc3c1OCO3)CN1CCc3cc4c(cc3C1C2)OCO4 (stereo not given)	6.34	–
COc1cc2c(cc1OC)C1Cc3c([nH]c4ccccc34)CN1CC2 (stereo not given)	–	60
COc1ccc2[nH]c3c(c2c1)CC1c2cc(O)c(OC)cc2CCN1C3 (stereo not given)	–	56
Fc1ccc(C2c3[nH]c4ccccc4c3CC3c4cc5c(cc4CCN32)OCO5)cc1 (stereo not given)	–	0
COc1cc2c(cc1OC)[C@@H]1Cc3ccc(OC)c(OC)c3CN1CC2	–	41.2
COc1ccc2c(c1)CCN1C2Cc2c([nH]c3ccccc23)C1C1CC1 (stereo not given)	–	31
c1ccc(COc2ccc3[nH]c4c(c3c2)CC2c3cc5c(cc3CCN2C4)OCO5)cc1 (stereo not given)	5.54	100
CCOc1cc2c(cc1OC)CCN1Cc3[nH]c4ccc(OC)cc4c3CC21 (stereo not given)	–	75
COc1cc2c(cc1OC)C1Cc3c([nH]c4ccccc34)C(c3ccc(F)cc3)N1CC2 (stereo not given)	–	0
COc1ccc(C2c3[nH]c4ccccc4c3CC3c4ccc(OC)cc4CCN32)cc1 (stereo not given)	< 5.00	80
